How the values were obtained:
Settings in all cases: 24 h at 37° C.
S. aureus = test: Zone of inhibition around monomer pellets or powder; format: cell-based, Staphylococcus aureus
Text: (§1) ZSB powder was used to show antimicrobial efficacy.

M. luteus = test: as above; format: cell-based, Micrococcus luteus
Text: as §1

P. aeruginosa = test: Zone of inhibition around monomer pellets; format: cell-based, Pseudomonas aeruginosa

O=C1C=CC(=O)[N]1[Ag]([P+](c1ccccc1)(c1ccccc1)c1ccccc1)[P+](c1ccccc1)(c1ccccc1)c1ccccc1 [PSSM, Phosphine Stabilised Silver Maleimide]
zone of inhibition (S. aureus): sharp ring of inhibition
zone of inhibition (M. luteus): sharp ring of inhibition
zone of inhibition (P. aeruginosa): more blurred inhibition zones

Source: US20120109286A1, “ANTIMICROBIAL COATINGS” (priority 2009, published 2012)
